Results: publication PMC3602154 (PLoS ONE, 2013)

Legend:
Alpha2B = target: T1, Alpha2B (Homo sapiens, UniProt P18089); assay: PDSP radioligand binding, adrenoceptor α2B
T1 sequence (P18089 1-450): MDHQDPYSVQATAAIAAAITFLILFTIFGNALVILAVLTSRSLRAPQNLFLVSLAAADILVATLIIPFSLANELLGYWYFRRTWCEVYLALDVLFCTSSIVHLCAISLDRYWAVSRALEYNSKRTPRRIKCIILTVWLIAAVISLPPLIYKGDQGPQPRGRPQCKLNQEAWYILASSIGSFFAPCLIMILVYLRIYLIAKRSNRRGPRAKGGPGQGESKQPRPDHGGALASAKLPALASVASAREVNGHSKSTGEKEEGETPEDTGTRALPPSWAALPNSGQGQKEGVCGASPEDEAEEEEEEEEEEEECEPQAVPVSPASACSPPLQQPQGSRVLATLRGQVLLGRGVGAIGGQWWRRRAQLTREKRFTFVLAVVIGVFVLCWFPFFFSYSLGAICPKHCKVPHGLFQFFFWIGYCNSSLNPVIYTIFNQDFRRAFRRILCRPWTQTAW
Description: (§1) [17] and http://pdsp.med.unc.edu/UNC-CH%20Protocol%20Book.pdf.

PBR = PBR (Homo sapiens, UniProt P30536); assay: PDSP radioligand binding, peripheral benzodiazepine receptor
Chain of PBR (P30536 whole entry, species assumed): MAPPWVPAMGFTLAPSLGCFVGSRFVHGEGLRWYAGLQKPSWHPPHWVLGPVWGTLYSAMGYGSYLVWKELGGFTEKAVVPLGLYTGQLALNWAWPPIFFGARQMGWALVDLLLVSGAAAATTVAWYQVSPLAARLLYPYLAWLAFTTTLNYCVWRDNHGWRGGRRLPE
Description: as §1

5-HT1D = 5-HT1D (Homo sapiens, UniProt P28221); assay: PDSP radioligand binding, serotonin receptor 5-HT1D
Chain of 5-HT1D (P28221 whole entry, species assumed): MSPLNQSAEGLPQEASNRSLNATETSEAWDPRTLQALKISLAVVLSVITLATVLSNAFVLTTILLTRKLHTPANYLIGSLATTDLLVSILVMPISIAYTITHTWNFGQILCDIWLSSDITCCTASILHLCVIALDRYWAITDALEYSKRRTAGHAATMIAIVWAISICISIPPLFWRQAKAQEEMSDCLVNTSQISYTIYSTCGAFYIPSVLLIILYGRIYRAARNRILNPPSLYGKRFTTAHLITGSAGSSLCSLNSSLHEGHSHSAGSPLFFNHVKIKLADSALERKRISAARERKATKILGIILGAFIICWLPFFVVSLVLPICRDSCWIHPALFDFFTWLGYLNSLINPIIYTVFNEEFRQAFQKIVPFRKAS
Description: as §1

Beta3 = Beta3 (Homo sapiens, UniProt P13945); assay: PDSP radioligand binding, adrenoceptor ß3
Chain of Beta3 (P13945 whole entry): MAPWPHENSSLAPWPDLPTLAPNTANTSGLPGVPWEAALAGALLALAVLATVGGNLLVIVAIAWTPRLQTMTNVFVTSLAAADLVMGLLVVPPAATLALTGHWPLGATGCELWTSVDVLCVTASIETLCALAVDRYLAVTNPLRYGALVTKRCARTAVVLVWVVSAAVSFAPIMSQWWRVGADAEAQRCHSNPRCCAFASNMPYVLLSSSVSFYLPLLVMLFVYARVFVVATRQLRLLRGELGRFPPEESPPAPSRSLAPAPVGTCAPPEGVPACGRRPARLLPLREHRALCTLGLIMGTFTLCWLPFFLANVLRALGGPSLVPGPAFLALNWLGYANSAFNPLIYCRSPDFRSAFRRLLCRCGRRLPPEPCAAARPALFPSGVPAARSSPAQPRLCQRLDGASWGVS
Description: as §1

D5 = D5 (Homo sapiens, UniProt P21918); assay: PDSP radioligand binding, dopamine receptor D5
Chain of D5 (P21918 whole entry): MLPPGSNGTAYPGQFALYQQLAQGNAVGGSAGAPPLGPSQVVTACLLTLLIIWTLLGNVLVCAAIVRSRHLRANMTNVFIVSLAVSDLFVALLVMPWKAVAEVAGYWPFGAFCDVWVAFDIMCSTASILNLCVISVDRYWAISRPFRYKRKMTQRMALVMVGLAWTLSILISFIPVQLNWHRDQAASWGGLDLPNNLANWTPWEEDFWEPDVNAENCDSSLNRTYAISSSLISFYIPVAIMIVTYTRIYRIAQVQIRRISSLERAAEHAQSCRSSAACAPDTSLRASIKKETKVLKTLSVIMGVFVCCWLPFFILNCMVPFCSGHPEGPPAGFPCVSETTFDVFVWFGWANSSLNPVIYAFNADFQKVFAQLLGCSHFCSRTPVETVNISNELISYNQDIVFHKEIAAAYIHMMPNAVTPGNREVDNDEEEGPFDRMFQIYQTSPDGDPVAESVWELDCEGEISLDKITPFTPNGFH
Description: as §1

Sigma2 = Sigma2 (Homo sapiens, UniProt Q5BJF2); assay: PDSP radioligand binding, Sigma2; settings: for inhibition at 10 µM: quadruplicate, read-out: Sigma2 Primary Screen inhibition of binding
Chain of Sigma2 (Q5BJF2 whole entry): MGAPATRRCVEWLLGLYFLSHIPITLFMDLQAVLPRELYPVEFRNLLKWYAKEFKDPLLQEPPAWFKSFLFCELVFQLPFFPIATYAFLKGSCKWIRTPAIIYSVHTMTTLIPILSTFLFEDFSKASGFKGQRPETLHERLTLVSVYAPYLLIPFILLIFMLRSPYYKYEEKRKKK
Description: as §1

DOR = DOR (Homo sapiens, UniProt P41143); assay: PDSP radioligand binding, opioid receptor DOR
Chain of DOR (P41143 whole entry): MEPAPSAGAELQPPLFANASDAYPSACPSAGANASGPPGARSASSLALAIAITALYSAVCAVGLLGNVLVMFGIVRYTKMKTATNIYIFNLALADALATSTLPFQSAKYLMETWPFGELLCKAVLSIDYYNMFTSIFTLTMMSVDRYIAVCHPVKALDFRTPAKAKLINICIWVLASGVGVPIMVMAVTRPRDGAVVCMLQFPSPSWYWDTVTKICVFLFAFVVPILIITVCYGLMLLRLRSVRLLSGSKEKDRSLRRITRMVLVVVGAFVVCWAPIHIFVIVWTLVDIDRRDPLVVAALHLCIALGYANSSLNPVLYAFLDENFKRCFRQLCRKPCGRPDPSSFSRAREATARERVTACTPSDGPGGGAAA
Description: as §1

5-HT1A = target: T2, 5-HT1A (Homo sapiens, UniProt P08908); assay: PDSP radioligand binding, serotonin receptor 5-HT1A
T2 sequence (P08908 1-422): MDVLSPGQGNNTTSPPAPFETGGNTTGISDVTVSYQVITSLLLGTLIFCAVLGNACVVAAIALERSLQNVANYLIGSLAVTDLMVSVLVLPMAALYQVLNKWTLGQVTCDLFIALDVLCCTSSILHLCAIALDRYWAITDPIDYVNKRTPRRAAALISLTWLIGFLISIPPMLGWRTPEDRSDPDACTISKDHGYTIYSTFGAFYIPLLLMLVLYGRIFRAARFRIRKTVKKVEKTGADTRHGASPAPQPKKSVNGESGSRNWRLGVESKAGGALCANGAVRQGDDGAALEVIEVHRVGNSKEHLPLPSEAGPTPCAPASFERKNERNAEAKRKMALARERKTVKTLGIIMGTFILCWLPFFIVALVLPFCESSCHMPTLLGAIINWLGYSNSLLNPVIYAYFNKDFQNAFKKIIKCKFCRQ
Description: as §1

[1] = target: SERT (serotonin transporter) (Homo sapiens, UniProt P31645); assay: biochemical; type: binding; settings: for Ki: Table 2
Chain of SERT (serotonin transporter) (P31645 whole entry, species assumed): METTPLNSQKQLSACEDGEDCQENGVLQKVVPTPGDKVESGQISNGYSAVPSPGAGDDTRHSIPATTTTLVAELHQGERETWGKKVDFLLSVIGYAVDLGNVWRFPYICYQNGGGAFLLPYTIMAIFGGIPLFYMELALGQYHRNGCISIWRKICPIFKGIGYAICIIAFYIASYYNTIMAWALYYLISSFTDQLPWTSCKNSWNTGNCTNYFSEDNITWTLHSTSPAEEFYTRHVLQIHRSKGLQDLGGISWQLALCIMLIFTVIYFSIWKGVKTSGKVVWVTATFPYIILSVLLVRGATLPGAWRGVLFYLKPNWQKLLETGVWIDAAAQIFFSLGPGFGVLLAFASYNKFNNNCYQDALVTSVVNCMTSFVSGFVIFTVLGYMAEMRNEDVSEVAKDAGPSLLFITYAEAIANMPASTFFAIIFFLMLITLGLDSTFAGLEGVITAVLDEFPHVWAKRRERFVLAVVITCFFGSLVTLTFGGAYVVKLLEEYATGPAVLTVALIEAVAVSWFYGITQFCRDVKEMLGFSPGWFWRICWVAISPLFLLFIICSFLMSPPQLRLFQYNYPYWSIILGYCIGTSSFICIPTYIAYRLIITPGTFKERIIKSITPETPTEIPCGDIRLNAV
Description: as §1

CCNC1(c2cccc(OC)c2)CCCCC1=O (racemic) [Methoxetamine, (RS)-2-(ethylamino)-2-(3-methoxyphenyl)cyclohexanone]
< 50%: inhibition at 10 µM (Sigma2)
> 10 µM: Ki (Alpha2B) | Ki (PBR) | Ki (5-HT1D) | Ki (Beta3) | Ki (D5) | Ki (Sigma2; Ki Sigma 2, Table S1, unit inferred) | Ki (DOR) | Ki (5-HT1A)

COc1cccc(C2(N3CCCCC3)CCCCC2)c1 [3-MeO-PCP, 1-[1-(3-methoxyphenyl)cyclohexyl]piperidine]
< 50%: inhibition at 10 µM (Sigma2)
> 10 µM: Ki (Alpha2B) | Ki (PBR) | Ki (5-HT1D) | Ki (Beta3) | Ki (D5) | Ki (DOR) | Ki (5-HT1A)
0.216 µM: Ki [1]

COc1ccc(C2(N3CCCCC3)CCCCC2)cc1 [4-MeO-PCP, 1-[1-(4-methoxyphenyl)cyclohexyl]piperidine]
submicromolar affinities: affinity for the serotonin transporter (SERT), in words [1]
0.844 µM: Ki [1]
> 10 µM: Ki (Alpha2B) | Ki (PBR) | Ki (5-HT1D) | Ki (Beta3) | Ki (D5) | Ki (DOR) | Ki (5-HT1A)
